The assay concerns the target Axl (Homo sapiens (Human), UniProt P30530). Kind of assay: Phospho-Akt in-cell Western assay (Axl-antibody cross-linking stimulation). The format is cell-based. Particulars: inhibition of Axl activity. On the procedure:
The working solution: dilute the stock 1:20 with PBS immediately before use. • 10% SDS: working solution: 5% SDS (sodium dodecylsulfate), diluted in PBS Methods: Day 1:
A 96 well TC (tissue culture treated) plate was coated with 10 μg/mL poly-L-Lysine at 37° C. for 30 min, washed twice with PBS, and air-dried for 5 minutes before cells were added. Hela cells were seeded at 10,000 cells/well and the cells were starved in 100 μL starvation medium containing Axl/Fc for 24 hrs.
The cells were pre-treated with test compounds by adding 100 μL of 2× test compound to the starvation medium on the cells. The cells were incubated at 37° C. for 1 hr before stimulation.
The resulting mix was warmed to 37° C. 50 μL of 5× Axl 1st/2nd of antibody cluster was added to the cells and the cells were incubated at 37° C. for 5 min.
After 5 minutes stimulation, the plate was flicked to remove medium and the plate was tapped onto paper towels. Formaldehyde (4.0% in PBS, 100 μL) was added to fix the cells and the cells were incubated at ambient temperature for 20 min without shaking.
The cells were washed with a plate washer buffer to remove the formaldehyde solution. The plate was flicked to removed excess wash buffer and tapped onto paper towels. Quenching buffer (100 μL) was added to each well and the cells were incubated at ambient temperature for 20 minutes without shaking.
The cells were washed with a plate washer buffer to remove the quenching buffer. Blocking buffer (100 μL) was added and the cells were incubated at ambient temperature for at least an hour with gentle shaking.
The cells were washed with a plate washer buffer and diluted primary antibody (50 μL) was added to each well (blocking buffer was added to the negative control wells instead). The plates were incubated overnight at 4° C. with gentle shaking.
The wash buffer was removed, diluted secondary antibody (100 μL) was added, and the cells were incubated at ambient temperature for 1 hour with gentle shaking. During the incubation, the chemiluminescent reagent was brought to ambient temperature.
The secondary antibody was removed by washing the cells 1× with wash buffer, 1× with PBS by plate washer. The PBS was removed from the plate and the chemiluminescent reagent (80 μL: 40 μL A and 40 μL B) was added to each well at ambient temperature.
The resulting chemiluminescence was read with a Luminomitor within 10 minutes to minimize changes in signal intensity. […] The plate was tapped onto paper towels to remove excess liquid from wells and air-dried at ambient temperature for 5 minutes.
Crystal Violet working solution (60 μL) was added to each well and the cells were incubated at ambient temperature for 30 min. The crystal violet solution was removed, and the wells were rinsed with PBS, then washed 3× with PBS (200 μL) for 5 minutes each.
5% SDS solution (70 μL) was added to each well and the cells were incubated on a shaker for 30 min at ambient temperature.
This relative cell number was then used to normalize each luminescence reading. […]

Where [1] appears, read: Hela cells, phospho-Akt readout, Table 1, formula (Ia1).
Setting [2] is: phospho-Akt in-cell Western assay.
The mark [3] stands for this setting: Hela cells, phospho-Akt readout, Table 5, formula (Ia3).

Structures are written as SMILES. Bounds are passed on as bounds.

Here are results for 26 compounds from patent publication US10166216B2 (Rigel Pharmaceuticals, Inc., priority 2006, dated 2019).

Chain of Axl (P30530 26-894): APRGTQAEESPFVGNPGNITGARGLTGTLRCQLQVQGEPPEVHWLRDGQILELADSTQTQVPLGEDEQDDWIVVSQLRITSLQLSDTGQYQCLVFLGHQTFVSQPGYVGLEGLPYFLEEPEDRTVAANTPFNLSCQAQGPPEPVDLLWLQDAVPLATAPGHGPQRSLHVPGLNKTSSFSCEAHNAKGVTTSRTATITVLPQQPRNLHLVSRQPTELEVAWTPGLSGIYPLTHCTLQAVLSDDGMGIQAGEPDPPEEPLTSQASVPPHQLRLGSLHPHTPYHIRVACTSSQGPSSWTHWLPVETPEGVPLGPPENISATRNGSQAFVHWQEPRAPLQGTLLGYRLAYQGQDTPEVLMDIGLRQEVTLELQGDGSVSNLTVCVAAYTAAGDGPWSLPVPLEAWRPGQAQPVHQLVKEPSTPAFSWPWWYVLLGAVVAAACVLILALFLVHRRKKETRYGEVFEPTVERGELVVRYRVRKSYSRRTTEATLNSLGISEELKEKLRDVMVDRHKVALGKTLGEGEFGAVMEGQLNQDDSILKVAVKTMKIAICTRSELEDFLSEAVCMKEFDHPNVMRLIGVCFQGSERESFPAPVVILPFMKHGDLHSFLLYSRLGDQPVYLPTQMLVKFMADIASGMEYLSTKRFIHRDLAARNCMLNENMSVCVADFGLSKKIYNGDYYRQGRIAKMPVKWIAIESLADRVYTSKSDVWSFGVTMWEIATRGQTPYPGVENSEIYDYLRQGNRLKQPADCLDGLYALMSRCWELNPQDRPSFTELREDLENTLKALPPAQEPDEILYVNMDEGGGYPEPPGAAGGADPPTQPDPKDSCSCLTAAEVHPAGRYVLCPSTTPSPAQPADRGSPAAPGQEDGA

Under setting [1], `Nc1nc(Nc2ccc(OCCN3CCCC3)cc2)nn1-c1nc(Cl)nc2cc(Cl)sc12` [Compound 175, 1-(2,6-dichlorothieno[3,2-d]pyrimidin-4-yl)-N^3-(4-(2-pyrrolidin-1-ylethoxy)phenyl)-1H-1,2,4-triazole-3,5-diamine] displayed an IC50 of less than 1000 nM. Consider `Nc1nc(Nc2ccc(OCCN3CCCC3)cc2)nn1-c1nccc2ccccc12` [Compound 50, 1-(isoquinolin-1-yl)-N^3-(4-(2-(pyrrolidin-1-yl)ethoxy)phenyl)-1H-1,2,4-triazole-3,5-diamine], for which the IC50 under setting [1] is less than 1000 nM.

Compound `Nc1nc(Nc2ccc(N3CCN(C4CCCCC4)CC3)c(F)c2)nn1-c1nccc2ccccc12` [Compound 87, N^3-(4-(4-cyclohexylpiperazin-1-yl)-3-fluroophenyl)-1-(isoquinolin-1-yl)-1H-1,2,4-triazole-3,5-diamine] registered an IC50 under setting [2] of less than 1000 nM. Under setting [3], `CCOC(=O)c1ccc(Nc2nc(NC)n(-c3ccccc3)n2)cc1` [Compound 247, 1-phenyl-N^3-(4-(ethyloxocarbonyl)phenyl)-N^5-methyl-1H-1,2,4-triazole-3,5-diamine] showed an IC50 of more than 20000 nM. Under setting [1], `Nc1nc(Nc2ccc(OCCN3CCCC3)cc2)nn1-c1ncnc2sccc12` [Compound 51, N^3-(4-(2-(pyrrolidin-1-yl)ethoxy)phenyl)-1-(thieno[2,3-d]pyrimidin-4-yl)-1H-1,2,4-triazole-3,5-diamine] registered an IC50 of less than 1000 nM. For `Cc1csc2ncnc(-n3nc(Nc4ccc(N5CCN([C@H]6C[C@@H]7CC[C@H]6C7)CC5)cc4)nc3N)c12` [Compound 191, 1-(5-methylthieno[2,3-d]pyrimidin-4-yl)-N^3-(4-(4-((1S,2S,4R)-bicyclo[2.2.1]heptan-2-yl)-piperazin-1-yl)phenyl)-1H-1,2,4-triazole-3,5-diamine], the IC50 under setting [2] was in the range of 1000 to 10000 nM. Still for that read-out and setting: for `Nc1nc(Nc2ccc(N3CCN(C4CC5CCC4C5)CC3)c(F)c2)nn1-c1ncnc2ccc(F)cc12` (centres unmarked) [Compound 197, 1-(6-fluoroquinazolin-4-yl)-N^3-(3-fluoro-4-(4-(bicyclo[2.2.1]heptan-2-yl)-piperazin-1-yl)phenyl)-1H-1,2,4-triazole-3,5-diamine] the value was less than 1000 nM; for `Nc1nc(Nc2ccc(N3CCN([C@H]4C[C@@H]5CC[C@H]4C5)CC3)c(Cl)c2)nn1-c1ncnc2ccsc12` [Compound 243, 1-thieno[3,2-d]pyrimidin-4-yl-N^3-(3-chloro-4-(4-((1S,2S,4R)-bicyclo[2.2.1]heptan-2-yl)piperazin-1-yl)phenyl)-1H-1,2,4-triazole-3,5-diamine], less than 1000 nM; for `Nc1nc(Nc2ccc(N3CCN(C4CCCCC4)CC3)cc2)nn1-c1cc2c(nn1)-c1ccccc1CC2` [Compound 115, N^3-(4-(4-cyclohexylpiperazin-1-yl)phenyl)-1-(5,6-dihydrobenzo[h]cinnolin-3-yl)-1H-1,2,4-triazole-3,5-diamine], 1000 to 10000 nM. Under setting [1], `Nc1nc(Nc2ccc(OCCN3CCCC3)cc2)nn1-c1nc(Cl)nc2c1CCC2` [Compound 49, 1-(2-chloro-6,7-dihydro-5H-cyclopenta[d]pyrimidin-4-yl)-N^3-(4-(2-(pyrrolidin-1-yl)ethoxy)phenyl)-1H-1,2,4-triazole-3,5-diamine] gave an IC50 of less than 1000 nM. Under setting [3], `CN(C)[C@H]1CCN(c2ccc(Nc3nc(N)n(-c4nccc5ccccc45)n3)cc2)C1` [Compound 165, N^3-(4-((S)-3-(dimethylamino)pyrrolidin-1-yl)phenyl)-1-(isoquinolin-1-yl)-1H-1,2,4-triazole-3,5-diamine] came in with a concentration for half-maximal inhibition (IC50) of less than 1000 nM.

As to `Nc1nc(Nc2ccc(OCCN3CCCC3)cc2)nn1-c1nc(N2CCOCC2)nc2ccccc12` [Compound 38, 1-(2-morpholinoquinazolin-4-yl)-N^3-(4-(2-(pyrrolidin-1-yl)ethoxy)phenyl)-1H-1,2,4-triazole-3,5-diamine], the IC50 under setting [1] lay in the range of 1000 to 10000 nM. Under setting [3], `Nc1nc(Nc2ccc(C(=O)O)cc2)nn1-c1ccnc(N2CCC[C@H]2CN2CCCC2)c1` [Compound 146, (S)-4-(5-amino-1-(2-(2-(pyrrolidin-1-ylmethyl)pyrrolidin-1-yl)pyridin-4-yl)-1H-1,2,4-triazol-3-ylamino) benzoic acid] registered an IC50 of more than 20000 nM. The compound `Nc1nc(Nc2ccc(CCC(=O)N3CCCC3)cc2)nn1-c1cnc2ccccc2n1` [Compound 152, 3-(4-(5-amino-1-(quinoxalin-2-yl)-1H-1,2,4-triazol-3-ylamino)phenyl)-1-(pyrrolidin-1-yl)propan-1-one] gave an IC50 under setting [3] of more than 20000 nM.

`COc1cc2ccnc(-n3nc(Nc4ccc(N5CCN(C6CCCCCC6)CC5)cc4)nc3N)c2cc1OC` [Compound 126, N^3-(4-(4-cycloheptylpiperazin-1-yl)phenyl)-1-(6,7-dimethoxyisoquinolin-1-yl)-1H-1,2,4-triazole-3,5-diamine] yielded an IC50 under setting [2] of less than 1000 nM. With `COc1cc2ncnc(-n3nc(Nc4ccc(CN5CCN(C)CC5)cc4)nc3N)c2cc1OC` [Compound 173, 1-(6,7-dimethoxyquinazolin-4-yl)-N^3-(4-((4-methylpiperazin-1-yl)methyl)phenyl)-1H-1,2,4-triazole-3,5-diamine], under setting [3], the IC50 was less than 1000 nM. In turn, `Nc1nc(Nc2ccc(OCCN3CCCC3)cc2)nn1-c1ccc(S(N)(=O)=O)cc1` [Compound 8, 4-(5-amino-3-(4-(2-(pyrrolidin-1-yl)ethoxy)phenylamino)-1H-1,2,4-triazol-1-yl)benzenesulfonamide] returned an IC50 under setting [1] of more than 20000 nM. Regarding `Nc1nc(Nc2ccc(N3CCN([C@H]4CC5CCC4C5)CC3)c(F)c2)nn1-c1cc(-c2ccccc2)ccn1` (stereo partly drawn) [Compound 230, 1-(4-phenylpyridin-2-yl)-N^3-(3-fluoro-4-(4-((2S)-bicyclo[2.2.1]heptan-2-yl)piperazin-1-yl)phenyl)-1H-1,2,4-triazole-3,5-diamine], the IC50 under setting [2] was in the range of 1000 to 10000 nM. Under setting [1], `Nc1nc(Nc2ccc(OCCN3CCCC3)c(Cl)c2)nn1-c1nccc2ccccc12` [Compound 62, N^3-(3-chloro-4-(2-(pyrrolidin-1-yl)ethoxy)phenyl)-1-(isoquinolin-1-yl)-1H-1,2,4-triazole-3,5-diamine] gave an IC50 of less than 1000 nM. The compound `COc1cc2ncnc(-n3nc(Nc4ccc(N5CC[C@H](N(C)C)C5)cc4)nc3N)c2cc1OC` [Compound 171, 1-(6,7-dimethoxyquinazolin-4-yl)-N^3-(4-((S)-3-(dimethylamino)pyrrolidin-1-yl)phenyl)-1H-1,2,4-triazole-3,5-diamine] had an IC50 under setting [3] of less than 1000 nM.

As for `Nc1nc(Nc2ccc(OCCN3CCCC3)cc2)nn1-c1nc(Cl)nc2sccc12` [Compound 176, 1-(2-chlorothieno[2,3-d]pyrimidin-4-yl)-N^3-(4-(2-pyrrolidin-1-ylethoxy)phenyl)-1H-1,2,4-triazole-3,5-diamine], the IC50 under setting [1] was less than 1000 nM. Regarding `COc1cc2ncnc(-n3nc(Nc4ccc(N5CCN(C6C7CC8CC(C7)CC6C8)CC5)cc4)nc3N)c2cc1OC` (centres unmarked) [Compound 111], the IC50 under setting [2] is more than 20000 nM.

Under setting [1], `COc1cc2c(-n3nc(Nc4ccc(OCCN5CCCC5)cc4)nc3N)ncnc2cc1OCc1ccccc1` [Compound 104, 1-(7-(benzyloxy)-6-methoxyquinazolin-4-yl)-N^3-(4-(2-(pyrrolidin-1-yl)ethoxy)phenyl)-1H-1,2,4-triazole-3,5-diamine] had an IC50 of more than 20000 nM. Under setting [2], `Cc1csc2c(-n3nc(Nc4ccc(N5CCN([C@H]6CC7CCC6C7)CC5)cc4)nc3N)nc(-c3ccncc3)nc12` (stereo partly drawn) [Compound 237, 1-(7-methyl-2-pyridin-4-ylthieno[3,2-d]pyrimidin-4-yl)-N^3-(4-(4-((2S)-bicyclo[2.2.1]heptan-2-yl)piperazin-1-yl)phenyl)-1H-1,2,4-triazole-3,5-diamine] gave an IC50 of less than 1000 nM. On to `Nc1nc(Nc2ccc(OCCN3CCCC3)cc2)nn1-c1ncccc1C(F)(F)F` [Compound 29, N^3-(4-(2-(pyrrolidin-1-yl)ethoxy)phenyl)-1-(3-(trifluoromethyl)pyridin-2-yl)-1H-1,2,4-triazole-3,5-diamine], for which the IC50 under setting [1] was 1000 to 10000 nM.

Under setting [1], `Nc1nc(Nc2ccc(OCCN3CCCC3)cc2)nn1-c1nc(Cl)nc2ccsc12` [Compound 177, 1-(2-chlorothieno[3,2-d]pyrimidin-4-yl)-N^3-(4-(2-pyrrolidin-1-ylethoxy)phenyl)-1H-1,2,4-triazole-3,5-diamine] displayed an IC50 of less than 1000 nM.

For orientation: IC50 means the concentration that gives 50% inhibition. Higher therefore signals lower potency.
